Structures can show the parent of a compound that is named as a salt.
Experiments:
[1] = tested on: Harmaline-Induced Essential Tremor in Rats; assay: Harmaline-induced essential tremor in rats (observational score, Tremor Monitor waveforms); type: in vivo, rats (male; Sprague Dawley); settings: for tremor, as indexed by OS, TI, and MPP: overall conclusion, propranolol 20 mg/kg
Experimental: Subjects: Naïve rats (114; male; Sprague Dawley; aged 6-9 weeks; weight 190-369 g) were obtained from Charles River UK and acclimated to the testing room in home cages (standard caging; housed in groups of 4) up to 7 days following arrival at the test facility, with free access to food (Certified Rodent CR 14% Protein Rodent Diet, LabDiet® 5CR4) and water on a 12 h/12 h light/dark cycle from arrival (lights on at 7:00 AM). All subjects were weighed at the beginning of the study and assigned to treatment groups.
Tremor Monitor™ (“TM”): A TM from San Diego Instruments was obtained to measure movement waveforms (i.e., amplitude (“A”) (dBV) as a function of frequency (“f”) (Hz)) (threshold 10 dBV).
NBX/Harmaline Experimental Group (number of subjects (“n”)=36 (12 at each dose of NBX)): Subjects were habituated to the TM for 2×5 minutes (with a 20 minute gap between the two 5 minute periods). The next day, 5.2, 10.4, or 20.8 mg/kg (total THC and CBD) NBX was administered p.o. (oral gavage) in sesame oil to the subjects at 2 mL/kg. 100 minutes after the NBX was administered, 10 mg/kg of harmaline was administered i.p. in water to the subjects at 5 mL/kg. 20, 40, and 60 minutes after the harmaline was administered to the subjects, the subjects were observationally scored in their home cages on a scale from 0 to 4 (wherein scores (“observational scores” (“OS”)) of 0, 1, 2, 3, and 4 correspond, as summarized in TABLE A below, to “No tremor”, “Occasional tremor affecting only head and neck”, “Intermittent tremor affecting whole body”, “Persistent tremor affecting whole body and tail”, and “Severe tremor rendering subject unable to stand”, respectively) and, immediately thereafter, movement waveforms of the subjects were measured with the TM for 5 minutes each.
Thereafter, the administration of the harmaline and NBX (“acute treatment”) was continued once per day until the harmaline and NBX had been administered for 10 days (“sub-chronic treatment”). 20, 40, and 60 minutes after the final administration of the NBX and harmaline, the subjects were again observationally scored on the scale described (and summarized in TABLE A) above and movement waveforms of the subjects were again measured with the TM for 5 minutes each.
Propranolol/Harmaline Comparison Group (n=12): The Experimental Group protocol was repeated, except for administering, instead of NBX, 20 mg/kg of propranolol i.p. 30 minutes before the harmaline was administered (as the maximum effect of propranolol can be observed approximately 30 minutes after administration).
Vehicle/Harmaline Control Group (n=12): The Experimental Group protocol was repeated, except for administering, instead of NBX, sesame oil (vehicle) at 2 mL/kg.
Calculations and Statistical Analysis: For each movement waveform measured, the following values were calculated: average amplitude (“A”) (average power) for the range of frequency (“f”) from
Tremor Index (“TI”=AP2−AP1); and Motion Power Percentage (“MPP” (%)=AP2/(AP1+AP2)×100). Further, for each subject, the following values were calculated: total number of tremor events (10 dBV threshold; sum of 20-, 40-, and 60-minute data); total average length of one tremor event (average of 20-, 40-, and 60-minute data); and total cumulative time of tremor events (sum of 20-, 40-, and 60-minute data), wherein “total” refers to combination of the 20-minute data, the 40-minute data, and the 60-minute data (e.g., “total cumulative time of tremor events” means total of the cumulative time of tremor events for the 20-minute data, the cumulative time of tremor events for the 40-minute data, and the cumulative time of tremor events for the 60-minute data). For the 20-, 40-, and 60-minute data independently, OS, MPP, and TI were analyzed by Kruskal-Wallis followed by Dunn's multiple comparison test. […]

[2] = tested on: rats; assay: Propranolol/Vehicle and NBX/Vehicle control groups (saline instead of harmaline), tremor measures; type: in vivo, rats (male; Sprague Dawley); settings: vs Vehicle/Vehicle group; for Tremor Index (TI) / observational score (OS): propranolol 20 mg/kg i.p. or NBX 5.2, 10.4, 20.8 mg/kg p.o.; for Motion Power Percentage (MPP): except for NBX at 20.8 mg/kg total THC and CBD at the 20 minute timepoint
Experimental: Propranolol/Vehicle Control Group (n=12): The Propranolol/Harmaline Comparison Group protocol was repeated, except for administering, instead of harmaline, saline (vehicle) at 5 mL/kg.
Vehicle/Vehicle Control Group (n=6): The Experimental Group protocol was repeated, except for administering, instead of NBX, sesame oil (vehicle) at 2 mL/kg, and, instead of harmaline, saline (vehicle) at 5 mL/kg.
NBX/Vehicle Control Group (n=36 (12 at each dose)): The Experimental Group protocol was repeated, except for administering, instead of harmaline, saline (vehicle) at 5 mL/kg.
Tremor Index (“TI”=AP2−AP1); and Motion Power Percentage (“MPP” (%)=AP2/(AP1+AP2)×100). Further, for each subject, the following values were calculated: total number of tremor events (10 dBV threshold; sum of 20-, 40-, and 60-minute data); total average length of one tremor event (average of 20-, 40-, and 60-minute data); and total cumulative time of tremor events (sum of 20-, 40-, and 60-minute data), wherein “total” refers to combination of the 20-minute data, the 40-minute data, and the 60-minute data (e.g., “total cumulative time of tremor events” means total of the cumulative time of tremor events for the 20-minute data, the cumulative time of tremor events for the 40-minute data, and the cumulative time of tremor events for the 60-minute data). For the 20-, 40-, and 60-minute data independently, OS, MPP, and TI were analyzed by Kruskal-Wallis followed by Dunn's multiple comparison test. For the 20-, 40-, and 60-minuted data combined, the total number of tremor events, total average length (duration) of one tremor event, and total cumulative time spent in tremor were analyzed by Kruskal-Wallis followed by a Tukey's multiple comparison test. Results were considered significant for p<0.05. Outlier removal was not applied due to non-responders in the harmaline group which could not be identified in the treatment groups.

[3] = harmaline 10 mg/kg i.p., acute treatment, all timepoints, Vehicle/Harmaline vs Vehicle/Vehicle group
[4] = harmaline 10 mg/kg i.p., acute treatment, sum of 20-, 40-, 60-minute data, Vehicle/Harmaline vs Vehicle/Vehicle group
[5] = harmaline 10 mg/kg i.p., sub-chronic treatment, all timepoints, Vehicle/Harmaline vs Vehicle/Vehicle group
[6] = harmaline 10 mg/kg i.p., sub-chronic treatment, sum of 20-, 40-, 60-minute data, Vehicle/Harmaline vs Vehicle/Vehicle group
[7] = acute treatment, propranolol 20 mg/kg i.p., harmaline 10 mg/kg i.p., all timepoints (20, 40, 60 min), vs Vehicle/Harmaline group
[8] = sub-chronic treatment (10 days), propranolol 20 mg/kg i.p., harmaline 10 mg/kg i.p., all timepoints, vs Vehicle/Harmaline group
[9] = sub-chronic treatment, propranolol 20 mg/kg i.p., harmaline 10 mg/kg i.p., vs Vehicle/Harmaline group

COc1ccc2c3c([nH]c2c1)C(C)=NCC3 [harmaline, Harmaline]
observational score (OS) ([1]; harmaline 10 mg/kg i.p., acute treatment, 20, 40 and 60 min post-dose, Vehicle/Harmaline vs Vehicle/Vehicle group): significantly increased | Motion Power Percentage (MPP) [1, 3]: significantly increased | Tremor Index (TI) [1, 3]: significantly increased | total average length of one tremor event ([1]; harmaline 10 mg/kg i.p., acute treatment, average of 20-, 40-, 60-minute data, Vehicle/Harmaline vs Vehicle/Vehicle group): significantly increased | total cumulative time of tremor events [1, 4]: significantly increased | total number of tremor events [1, 4]: significantly increased | observational score (OS) ([1]; harmaline 10 mg/kg i.p., sub-chronic treatment, 20, 40 and 60 min post-dose, Vehicle/Harmaline vs Vehicle/Vehicle group): significantly increased | Motion Power Percentage (MPP) [1, 5]: significantly increased | Tremor Index (TI) [1, 5]: significantly increased | total average length of one tremor event ([1]; harmaline 10 mg/kg i.p., sub-chronic treatment, average of 20-, 40-, 60-minute data, Vehicle/Harmaline vs Vehicle/Vehicle group): significantly increased | total cumulative time of tremor events [1, 6]: significantly increased | total number of tremor events [1, 6]: significantly increased

CC(C)NCC(O)COc1cccc2ccccc12 (stereo not drawn) [propranolol, Propranolol hydrochloride]
Tremor Index (TI) ([2]; acute treatment): no significant effect | observational score (OS) ([2]; acute treatment): no significant effect | Motion Power Percentage (MPP) ([2]; acute treatment): no significant effect | Tremor Index (TI) ([2]; sub-chronic treatment): no significant effect | observational score (OS) ([2]; sub-chronic treatment): no significant effect | Motion Power Percentage (MPP) ([2]; sub-chronic treatment): no significant effect | observational score (OS) ([1]; acute treatment, propranolol 20 mg/kg i.p. 30 min before harmaline 10 mg/kg i.p., 20, 40 and 60 min post-dose, vs Vehicle/Harmaline group): significantly decreased | Motion Power Percentage (MPP) [1, 7]: significantly decreased | Tremor Index (TI) [1, 7]: significantly decreased | total number of tremor events ([1]; acute treatment, propranolol 20 mg/kg i.p., harmaline 10 mg/kg i.p., vs Vehicle/Harmaline group, the only one of the three event measures significantly reduced): significantly reduced | tremor, as indexed by OS, TI, and MPP ([1]; acutely): significantly reduced | tremor, as indexed by OS, TI, and MPP ([1]; sub-chronically): significantly reduced | Motion Power Percentage (MPP) [1, 8]: significantly decreased | Tremor Index (TI) [1, 8]: significantly decreased | observational score (OS) ([1]; sub-chronic treatment (once daily, 10 days), propranolol 20 mg/kg i.p., harmaline 10 mg/kg i.p., 20, 40 and 60 min, vs Vehicle/Harmaline group): significantly decreased | total average length of one tremor event [1, 9]: significantly reduced | total cumulative time of tremor events [1, 9]: significantly reduced | total number of tremor events [1, 9]: significantly reduced
